Test results from PMC10303271, “Synthesis and Receptor Binding Studies of α5 GABAAR Selective Novel Imidazodiazepines Targeted for Psychiatric and Cognitive Disorders” (Molecules, 2023).

Legend:
[1] = biological target: T1, V2 (Homo sapiens, UniProt P30518); assay: PDSP primary binding V2; settings: primary binding, 10,000 nM; last figure of the line = mean of the 4 before it; read-out: V2, PDSP raw data, mean
T1 construct: purchased NIMH Psychoactive Drug Screening Program (PDSP)
Procedure: (§1) To determine if any off-target receptor-binding effects are present, all the novel ligands were sent to the National Institute of Mental Health (NIMH), Psychoactive Drug Screening Program (PDSP). The ligands were screened over a panel of 47 receptors, ion channels, and transporters to determine any other possible interactions with […]. The hERG-binding was also determined. […] No binding of the test compounds to calcium channels was observed. […] It is necessary to screen the compounds for hERG-binding during the early process of drug discovery. The unintentional binding of many drugs to hERG can cause blockade of hERG K+ channels in the heart, which can cause many side effects including cardiac arrhythmias and sudden death. […] All of the α5 imidazodiazepines were tested for hERG-binding.
(§2) The NIMH PDSP assay protocol book [https://kidbdev.med.unc.edu/databases/PDSP%20Protocols%20II%202013-03-28.pdf accessed on 23 April 2023]. describes the protocols for primary and secondary radio-ligand binding assays. These assays were carried out in a final volume of 125 µL per well in the appropriate binding buffer.
(§3) The binding of a ligand to a receptor, ion channel, or transporter was determined in the […] of 10 µM of the appropriate reference compound. […] Plates were incubated in the dark for 90 min at rt, and the reactions were stopped by vacuum filtration onto 0.3% polyethyleneimine (PEI) soaked 96-well filter mats using a 96-well Filtermateharvester. This was followed by three washes with cold PBS buffer. Radioactivity was then counted on a Microbeta counter. Nonlinear regression was used to analyze the data with N = 6 replicates.

[2] = biological target: T2, D2 (Homo sapiens, UniProt P14416); assay: PDSP primary binding D2; settings: 1.5 h; primary binding, 10,000 nM; last figure of the line = mean of the 4 before it; read-out: D2, PDSP raw data, mean
T2 construct: purchased NIMH Psychoactive Drug Screening Program (PDSP)
Procedure: as §1, §2, §3

[3] = biological target: T3, A1 (Homo sapiens, UniProt P30542); assay: PDSP primary binding A1; settings: 1.5 h; primary binding, 10,000 nM; last figure of the line = mean of the 4 before it; read-out: A1, PDSP raw data, mean
T3 construct: purchased NIMH Psychoactive Drug Screening Program (PDSP)
T3 sequence (P30542 1-326): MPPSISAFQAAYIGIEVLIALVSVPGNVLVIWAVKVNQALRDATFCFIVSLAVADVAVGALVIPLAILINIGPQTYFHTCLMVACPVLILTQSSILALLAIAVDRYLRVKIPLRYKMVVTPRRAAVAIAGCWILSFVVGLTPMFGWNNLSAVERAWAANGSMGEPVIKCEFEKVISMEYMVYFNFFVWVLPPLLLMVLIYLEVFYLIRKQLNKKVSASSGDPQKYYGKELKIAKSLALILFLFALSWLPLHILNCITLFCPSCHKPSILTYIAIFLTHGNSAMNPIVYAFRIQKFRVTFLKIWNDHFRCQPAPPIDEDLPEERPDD
Procedure: as §1, §2, §3

[4] = biological target: T4, 5-HT2C (Homo sapiens, UniProt P28335); assay: PDSP primary binding 5-HT2C; settings: 1.5 h; primary binding, 10,000 nM; last figure of the line = mean of the 4 before it; read-out: 5-HT2C, PDSP raw data, mean
T4 construct: purchased NIMH Psychoactive Drug Screening Program (PDSP)
T4 sequence (P28335 33-458): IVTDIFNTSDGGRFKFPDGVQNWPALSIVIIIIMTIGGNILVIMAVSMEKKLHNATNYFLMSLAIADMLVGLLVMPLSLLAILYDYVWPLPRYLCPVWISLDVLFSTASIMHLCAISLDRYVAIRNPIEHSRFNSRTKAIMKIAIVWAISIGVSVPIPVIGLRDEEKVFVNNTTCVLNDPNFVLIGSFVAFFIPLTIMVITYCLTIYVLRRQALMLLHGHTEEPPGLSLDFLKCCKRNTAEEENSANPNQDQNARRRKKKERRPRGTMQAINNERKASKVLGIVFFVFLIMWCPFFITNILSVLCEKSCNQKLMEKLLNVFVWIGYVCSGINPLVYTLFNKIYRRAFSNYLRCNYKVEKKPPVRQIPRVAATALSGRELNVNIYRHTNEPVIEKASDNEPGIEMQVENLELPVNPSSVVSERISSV
Procedure: as §1, §2, §3

[5] = biological target: T5, 5-HT2A (Homo sapiens, UniProt P28223); assay: PDSP primary binding 5-HT2A; settings: 1.5 h; primary binding, 10,000 nM; last figure of the line = mean of the 4 before it; read-out: 5-HT2A, PDSP raw data, mean
T5 construct: purchased NIMH Psychoactive Drug Screening Program (PDSP)
Procedure: as §1, §2, §3

[6] = biological target: T6, Alpha4Beta4 (Rattus norvegicus, UniProt P09483+P12392); assay: PDSP primary binding Alpha4Beta4; settings: primary binding, 10,000 nM; last figure of the line = mean of the 4 before it; read-out: Alpha4Beta4, PDSP raw data, mean
T6 construct: purchased NIMH Psychoactive Drug Screening Program (PDSP)
Procedure: as §1, §2, §3

[7] = biological target: T7, 5-HT1E (Homo sapiens, UniProt P28566); assay: PDSP primary binding 5-HT1E; settings: primary binding, 10,000 nM; last figure of the line = mean of the 4 before it
T7 construct: purchased NIMH Psychoactive Drug Screening Program (PDSP)
Procedure: as §1, §2, §3

[8] = biological target: T8, 5-HT7A (Homo sapiens, UniProt P34969); assay: PDSP primary binding 5-HT7A; settings: 1.5 h; primary binding, 10,000 nM; last figure of the line = mean of the 4 before it; read-out: 5-HT7A, PDSP raw data, mean
T8 construct: purchased NIMH Psychoactive Drug Screening Program (PDSP)
Procedure: as §1, §2, §3

[9] = biological target: T9, 5-HT1A (Homo sapiens, UniProt P08908); assay: PDSP primary binding 5-HT1A; settings: 1.5 h; primary binding, 10,000 nM; last figure of the line = mean of the 4 before it; read-out: 5-HT1A, PDSP raw data, mean
T9 construct: purchased NIMH Psychoactive Drug Screening Program (PDSP)
T9 sequence (P08908 1-422): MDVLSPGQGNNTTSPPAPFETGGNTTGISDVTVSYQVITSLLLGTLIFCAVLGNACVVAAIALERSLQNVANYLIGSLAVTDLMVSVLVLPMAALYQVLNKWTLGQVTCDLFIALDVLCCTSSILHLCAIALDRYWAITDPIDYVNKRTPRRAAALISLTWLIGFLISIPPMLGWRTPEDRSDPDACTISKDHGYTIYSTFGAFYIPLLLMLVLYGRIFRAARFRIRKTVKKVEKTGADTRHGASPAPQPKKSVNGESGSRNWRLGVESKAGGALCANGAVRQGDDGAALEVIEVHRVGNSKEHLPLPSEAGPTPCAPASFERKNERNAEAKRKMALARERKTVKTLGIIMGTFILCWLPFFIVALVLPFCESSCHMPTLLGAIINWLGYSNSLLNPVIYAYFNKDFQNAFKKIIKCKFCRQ
Procedure: as §1, §2, §3

T2 sequence (P14416 whole entry): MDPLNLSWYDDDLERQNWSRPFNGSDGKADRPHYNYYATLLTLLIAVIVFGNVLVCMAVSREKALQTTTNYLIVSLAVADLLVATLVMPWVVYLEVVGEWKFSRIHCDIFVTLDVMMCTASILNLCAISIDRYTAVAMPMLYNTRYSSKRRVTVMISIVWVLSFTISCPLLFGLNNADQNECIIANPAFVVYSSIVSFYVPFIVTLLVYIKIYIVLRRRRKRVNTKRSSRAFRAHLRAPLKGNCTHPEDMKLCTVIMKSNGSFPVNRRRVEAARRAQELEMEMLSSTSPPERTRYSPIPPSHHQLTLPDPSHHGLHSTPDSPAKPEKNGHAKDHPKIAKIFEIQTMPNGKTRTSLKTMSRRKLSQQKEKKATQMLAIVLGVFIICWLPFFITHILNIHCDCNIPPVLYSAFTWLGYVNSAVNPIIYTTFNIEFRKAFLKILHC
T7 sequence (P28566 whole entry): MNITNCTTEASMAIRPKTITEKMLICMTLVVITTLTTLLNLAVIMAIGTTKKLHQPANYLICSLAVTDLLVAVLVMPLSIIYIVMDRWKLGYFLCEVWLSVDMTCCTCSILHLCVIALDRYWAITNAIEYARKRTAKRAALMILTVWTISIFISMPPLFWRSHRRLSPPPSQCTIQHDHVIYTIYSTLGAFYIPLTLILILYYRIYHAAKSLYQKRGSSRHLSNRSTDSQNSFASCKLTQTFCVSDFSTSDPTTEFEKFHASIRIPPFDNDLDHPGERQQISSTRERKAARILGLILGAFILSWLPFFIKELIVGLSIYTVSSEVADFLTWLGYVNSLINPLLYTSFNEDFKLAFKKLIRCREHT
T1 sequence (P30518 whole entry): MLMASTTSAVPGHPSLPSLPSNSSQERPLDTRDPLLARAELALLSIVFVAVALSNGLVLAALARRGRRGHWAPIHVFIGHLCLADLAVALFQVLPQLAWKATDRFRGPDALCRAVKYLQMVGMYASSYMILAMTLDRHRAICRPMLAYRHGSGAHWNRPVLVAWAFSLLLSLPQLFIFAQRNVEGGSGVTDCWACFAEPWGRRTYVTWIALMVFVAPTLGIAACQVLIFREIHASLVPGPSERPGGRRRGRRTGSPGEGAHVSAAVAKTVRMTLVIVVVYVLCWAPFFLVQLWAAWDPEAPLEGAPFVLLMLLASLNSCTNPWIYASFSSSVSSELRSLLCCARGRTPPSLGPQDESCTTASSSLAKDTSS
T8 sequence (P34969 1-445 isoform P34969-2): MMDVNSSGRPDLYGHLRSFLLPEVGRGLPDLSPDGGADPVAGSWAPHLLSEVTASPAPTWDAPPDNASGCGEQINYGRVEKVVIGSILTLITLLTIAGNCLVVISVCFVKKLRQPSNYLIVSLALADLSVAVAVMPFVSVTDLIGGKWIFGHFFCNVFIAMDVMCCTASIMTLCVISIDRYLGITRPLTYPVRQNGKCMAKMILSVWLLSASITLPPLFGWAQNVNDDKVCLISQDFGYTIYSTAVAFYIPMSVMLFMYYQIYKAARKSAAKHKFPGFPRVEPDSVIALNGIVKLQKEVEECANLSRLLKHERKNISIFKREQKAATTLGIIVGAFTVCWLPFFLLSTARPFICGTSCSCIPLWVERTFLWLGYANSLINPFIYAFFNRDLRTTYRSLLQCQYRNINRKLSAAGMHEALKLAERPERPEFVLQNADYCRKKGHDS
T6 sequence (P09483 31-630): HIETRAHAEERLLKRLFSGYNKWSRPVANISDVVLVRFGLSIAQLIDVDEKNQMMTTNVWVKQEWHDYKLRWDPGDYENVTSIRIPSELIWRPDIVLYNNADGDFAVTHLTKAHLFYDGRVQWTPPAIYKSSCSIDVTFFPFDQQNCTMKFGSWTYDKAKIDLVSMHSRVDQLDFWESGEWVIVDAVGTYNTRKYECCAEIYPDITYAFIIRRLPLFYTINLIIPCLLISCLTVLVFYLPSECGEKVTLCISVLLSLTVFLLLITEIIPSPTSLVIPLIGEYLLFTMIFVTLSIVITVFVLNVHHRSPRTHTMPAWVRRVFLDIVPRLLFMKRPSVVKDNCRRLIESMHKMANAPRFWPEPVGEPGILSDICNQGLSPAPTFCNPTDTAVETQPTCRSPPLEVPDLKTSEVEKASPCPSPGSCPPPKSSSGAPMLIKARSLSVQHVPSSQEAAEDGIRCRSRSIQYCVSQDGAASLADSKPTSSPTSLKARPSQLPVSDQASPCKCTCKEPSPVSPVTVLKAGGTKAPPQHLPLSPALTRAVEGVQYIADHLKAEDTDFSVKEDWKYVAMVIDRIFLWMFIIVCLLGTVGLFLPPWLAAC
T6 sequence (P12392 21-495): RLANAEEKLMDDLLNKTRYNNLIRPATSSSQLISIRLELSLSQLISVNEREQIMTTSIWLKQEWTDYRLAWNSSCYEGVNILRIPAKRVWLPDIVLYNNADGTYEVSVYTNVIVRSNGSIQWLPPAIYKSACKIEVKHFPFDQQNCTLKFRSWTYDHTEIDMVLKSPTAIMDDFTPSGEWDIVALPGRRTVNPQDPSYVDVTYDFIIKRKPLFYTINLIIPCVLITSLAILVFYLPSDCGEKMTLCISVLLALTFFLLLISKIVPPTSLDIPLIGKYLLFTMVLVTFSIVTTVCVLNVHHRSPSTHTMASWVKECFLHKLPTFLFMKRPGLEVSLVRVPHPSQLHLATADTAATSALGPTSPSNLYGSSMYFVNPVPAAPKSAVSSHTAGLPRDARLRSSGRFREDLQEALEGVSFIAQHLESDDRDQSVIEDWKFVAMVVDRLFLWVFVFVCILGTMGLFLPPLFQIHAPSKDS
T5 sequence (P28223 whole entry): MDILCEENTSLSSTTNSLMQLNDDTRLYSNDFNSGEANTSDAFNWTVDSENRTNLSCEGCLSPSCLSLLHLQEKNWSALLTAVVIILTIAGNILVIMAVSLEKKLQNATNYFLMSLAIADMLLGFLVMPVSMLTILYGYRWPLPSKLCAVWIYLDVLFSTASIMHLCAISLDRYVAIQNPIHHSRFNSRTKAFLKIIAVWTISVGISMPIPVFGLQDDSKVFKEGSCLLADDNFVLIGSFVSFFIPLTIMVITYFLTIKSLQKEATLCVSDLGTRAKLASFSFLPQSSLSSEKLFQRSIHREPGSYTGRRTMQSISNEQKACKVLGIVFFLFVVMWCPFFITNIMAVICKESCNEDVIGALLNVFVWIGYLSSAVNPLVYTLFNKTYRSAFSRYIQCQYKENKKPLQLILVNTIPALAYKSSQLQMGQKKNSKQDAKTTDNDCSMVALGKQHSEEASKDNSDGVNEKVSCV

C#Cc1ccc2c(c1)C(c1ccccn1)=N[C@@H](C)c1c(C(=O)NC)ncn1-2 [Compound 23, (S)-8-Ethynyl-N,4-dimethyl-6-(pyridin-2′-yl)-4H-benzo[f]imidazo[1,5-a][1,4]diazepine-3-carboxamide]
inhibition at 10 µM [1]: 10.2% | inhibition at 10 µM [2]: -4.79% | inhibition at 10 µM [3]: 10.4% | inhibition at 10 µM [4]: -10.1% | inhibition at 10 µM [5]: -0.6% | inhibition at 10 µM [6]: 4.42% | 5-HT1E, PDSP raw data, mean [7]: 19.33% | inhibition at 10 µM [8]: -13.5% | inhibition at 10 µM [9]: 2.23%

C[C@H]1N=C(c2ccccc2F)c2cc(-c3ccccc3)ccc2-n2cnc(C(=O)N(C)C)c21 [Compound 5, (R)-6-(2′-Fluorophenyl)-N,N,4-trimethyl-8-phenyl-4H-benzo[f]imidazo[1,5-a][1,4]diazepine-3-carboxamide]
inhibition at 10 µM [1]: 19.7% | inhibition at 10 µM [2]: 0.27% | inhibition at 10 µM [3]: 25.9% | inhibition at 10 µM [4]: 18% | inhibition at 10 µM [5]: 10.7% | inhibition at 10 µM [6]: 1.99% | 5-HT1E, PDSP raw data, mean [7]: 34.07% | inhibition at 10 µM [8]: 4.31% | inhibition at 10 µM [9]: 2.37%

CCc1noc(-c2ncn3c2CN=C(c2ccccc2F)c2cc(C4CC4)ccc2-3)n1 [Compound 44, 5-(8-Cyclopropyl-6-(2′-fluorophenyl)-4H-benzo[f]imidazo[1,5-a][1,4]diazepin-3-yl)-3-ethyl-1,2,4-oxadiazole]
inhibition at 10 µM [1]: 27.7% | inhibition at 10 µM [2]: 0.67% | inhibition at 10 µM [3]: 48.2% | inhibition at 10 µM [4]: 24.7% | inhibition at 10 µM [5]: 21.2% | inhibition at 10 µM [6]: 10.6% | 5-HT1E, PDSP raw data, mean [7]: 11.75% | inhibition at 10 µM [8]: 9.22% | inhibition at 10 µM [9]: 36.1%

CCc1noc(-c2ncn3c2[C@@H](C)N=C(c2ccccc2F)c2cc(C4CC4)ccc2-3)n1 [Compound 46, (R)-5-(8-Cyclopropyl-6-(2′-fluorophenyl)-4-methyl-4H-benzo[f]imidazo[1,5-a][1,4]diazepin-3-yl)-3-ethyl-1,2,4-oxadiazole]
inhibition at 10 µM [1]: 48.4% | inhibition at 10 µM [2]: 4.73% | inhibition at 10 µM [3]: 30.9% | inhibition at 10 µM [4]: 3.53% | inhibition at 10 µM [5]: 23.6% | inhibition at 10 µM [6]: 14.2% | 5-HT1E, PDSP raw data, mean [7]: -18.76% | inhibition at 10 µM [8]: 4.98% | inhibition at 10 µM [9]: 17.8%

C#Cc1ccc2c(c1)C(c1ccccn1)=N[C@@H](C)c1c(C(=O)N(C)C)ncn1-2 [Compound 31, (S)-8-Ethynyl-N,N,4-trimethyl-6-(pyridin-2′-yl)-4H-benzo[f]imidazo[1,5-a][1,4]diazepine-3-carboxamide]
inhibition at 10 µM [1]: 15.4% | inhibition at 10 µM [2]: 3.47% | inhibition at 10 µM [3]: 32.2% | inhibition at 10 µM [4]: -12.3% | inhibition at 10 µM [5]: -13.1% | inhibition at 10 µM [6]: 6.85% | 5-HT1E, PDSP raw data, mean [7]: 18.14% | inhibition at 10 µM [8]: -9.64% | inhibition at 10 µM [9]: -0.48%

CC(C)c1noc(-c2ncn3c2[C@@H](C)N=C(c2ccccc2F)c2cc(Cl)ccc2-3)n1 [Compound 37, (R)-5-(8-Chloro-6-(2′-fluorophenyl)-4-methyl-4H-benzo[f]imidazo[1,5-a][1,4]diazepin-3-yl)-3-isopropyl-1,2,4-oxadiazole]
inhibition at 10 µM [1]: -7.17% | inhibition at 10 µM [2]: 18.2% | inhibition at 10 µM [3]: 52.2% | inhibition at 10 µM [4]: 17.5% | inhibition at 10 µM [5]: 14.1% | inhibition at 10 µM [6]: 12.9% | 5-HT1E, PDSP raw data, mean [7]: -14.78% | inhibition at 10 µM [8]: 12.1% | inhibition at 10 µM [9]: -6%

CCc1noc(-c2ncn3c2[C@@H](C)N=C(c2ccccc2F)c2cc(-c4ccccc4)ccc2-3)n1 [Compound 35, (R)-3-Ethyl-5-(6-(2′-fluorophenyl)-4-methyl-8-phenyl-4H-benzo[f]imidazo[1,5-a][1,4]diazepin-3-yl)-1,2,4-oxadiazole]
inhibition at 10 µM [1]: 37.4% | inhibition at 10 µM [2]: 7.47% | inhibition at 10 µM [3]: 27.1% | inhibition at 10 µM [4]: 19.7% | inhibition at 10 µM [5]: 32.3% | inhibition at 10 µM [6]: 17.9% | 5-HT1E, PDSP raw data, mean [7]: 5.88% | inhibition at 10 µM [8]: 8.12% | inhibition at 10 µM [9]: 28.9%

C#Cc1ccc2c(c1)C(c1ccccc1F)=N[C@H](C)c1c(C(=S)N(C)C)ncn1-2 [Compound 33, (R)-8-Ethynyl-6-(2′-fluorophenyl)-N,N,4-trimethyl-4H-benzo[f]imidazo[1,5-a][1,4]diazepine-3-carbothioamide]
inhibition at 10 µM [1]: 19.7% | inhibition at 10 µM [2]: 0.27% | inhibition at 10 µM [3]: 25.9% | inhibition at 10 µM [4]: 18% | inhibition at 10 µM [5]: 10.7% | inhibition at 10 µM [6]: 1.99% | 5-HT1E, PDSP raw data, mean [7]: 34.07% | inhibition at 10 µM [8]: 4.31% | inhibition at 10 µM [9]: 2.37%

C[C@H]1N=C(c2ccccc2F)c2cc(Cl)ccc2-n2cnc(-c3nc(C4CC4)no3)c21 [Compound 38, (R)-5-(8-Chloro-6-(2′-fluorophenyl)-4-methyl-4H-benzo[f]imidazo[1,5-a][1,4]diazepin-3-yl)-3-cyclopropyl-1,2,4-oxadiazole]
inhibition at 10 µM [1]: 5.48% | inhibition at 10 µM [2]: 21.8% | inhibition at 10 µM [3]: 55.5% | inhibition at 10 µM [4]: 7.18% | inhibition at 10 µM [5]: 11.6% | inhibition at 10 µM [6]: 8.62% | 5-HT1E, PDSP raw data, mean [7]: -22.45% | inhibition at 10 µM [8]: 11.9% | inhibition at 10 µM [9]: -1.57%

C#Cc1ccc2c(c1)C(c1ccccc1Cl)=N[C@H](C)c1c(C(=O)NC)ncn1-2 [Compound 21, (R)-6-(2′-Chlorophenyl)-8-ethynyl-N,4-dimethyl-4H-benzo[f]imidazo[1,5-a][1,4]diazepine-3-carboxamide]
inhibition at 10 µM [1]: 43% | inhibition at 10 µM [2]: -4.19% | inhibition at 10 µM [3]: -13.3% | inhibition at 10 µM [4]: -14.2% | inhibition at 10 µM [5]: -7.9% | inhibition at 10 µM [6]: 14.4% | 5-HT1E, PDSP raw data, mean [7]: 7.75% | inhibition at 10 µM [8]: -12.3% | inhibition at 10 µM [9]: 4.88%
